17 molecules from US11178870B2 (priority 2017, dated 2021) can be followed below.

Structures are written as SMILES. A value given as a limit tells only on which side of the number the result lay.

Common to all, as to format: in vivo
In test [1] the test system is Puccinia recondita. Briefly: Test Example E: Brown rust on wheat. As to conditions: Brown rust on wheat, read-out: Test E control value.
In test [2] the test system is Magnaporthe grisea. Briefly: whole plant or invertebrate. As to conditions: Pyricularia oryzae, in Oryza sativa, read-out: Test A control value.
Test [3] concerns Phytophthora infestans. In words: whole plant or invertebrate. As to conditions: in Solanum lycopersicum, read-out: Test F control value.
The subject of test [4] is Botrytis cinerea. In words: Test Example B: Gray mold on tomato. The settings on record: Gray mold on tomato, read-out: Test B control value.
Test [5] concerns Plasmopara viticola. Briefly: Test Example G: Downy mildew on vine. The settings on record: Downy mildew on vine, 250 ppm sprayed, 2.5 ml/pot, 7 to 10 days after inoculation, read-out: Test G control value.
The test system of test [6] is Blumeria graminis f. sp. hordei. In words: Test Example D: Powdery mildew on barley. As to conditions: Powdery mildew on barley, read-out: Test D control value.
Test [7] has as its system Alternaia brassicicola. In words: Test Example C: Alternaria sooty spot on cabbage. The settings on record: Brassica oleracea; Alternaria sooty spot on cabbage; read-out: Test C control value.

Consider `CCN1C(=O)CCC(c2cccs2)=C1c1c(F)cccc1F` [compound 2, 6-(2,6-difluorophenyl)-1-ethyl-5-(thiophen-2-yl)-3,4-dihydropyridin-2(1H)-one], for which the pest or weed control at 250 µg/mL is more than 50% in test [1]; more than 50% in test [2]; less than 50% in test [3]; less than 50% in test [4]; more than 50% in test [6]; less than 50% in test [7]. Besides, the pest or weed control at 250 ppm in test [5] was more than 50%.

`CCn1c(-c2c(F)cc(F)cc2F)c(-n2cc(Cl)cn2)cc(Cl)c1=O` [compound 40, 3-chloro-5-(4-chloro-1H-pyrazol-1-yl)-1-ethyl-6-(2,4,6-trifluoro-phenyl)pyridin-2(1H)-one]: the pest or weed control at 250 µg/mL is more than 50% in test [1]; more than 50% in test [2]; less than 50% in test [3]; more than 50% in test [4]; more than 50% in test [6]; more than 50% in test [7]. Also, the pest or weed control at 250 ppm in test [5] was less than 50%.

With `CCn1c(-c2c(F)cc(OC)cc2F)c(-n2cc(Br)cn2)cc(Cl)c1=O` [compound 72, 5-(4-bromo-1H-pyrazol-1-yl)-3-chloro-6-(2,6-difluoro-4-methoxyphenyl)-1-ethylpyridin-2(1H)-one], the pest or weed control at 250 µg/mL in test [1] was more than 50%; in test [2], more than 50%; in test [3] it was less than 50%; in test [4], more than 50%; in test [6], more than 50%; in test [7] it was more than 50%. Besides, the pest or weed control at 250 ppm in test [5] is less than 50%.

For `CCn1c(-c2c(F)cccc2F)c(-c2cccnc2Cl)cc(Cl)c1=O` [compound 18], the pest or weed control at 250 µg/mL was more than 50% in test [1]; more than 50% in test [2]; less than 50% in test [3]; more than 50% in test [4]; more than 50% in test [6]; more than 50% in test [7]. Further, in test [5], the pest or weed control at 250 ppm was less than 50%.

With `CCN1C(=O)CCC(n2cccn2)=C1c1c(F)cc(F)cc1F` [compound 25, 1-ethyl-5-(1H-pyrazol-1-yl)-6-(2,4,6-trifluorophenyl)-3,4-dihydropyridin-2(1H)-one], the pest or weed control at 250 µg/mL in test [1] is less than 50%; in test [2] it was less than 50%; in test [3], less than 50%; in test [4], less than 50%; in test [6] it was more than 50%; in test [7] it was more than 50%. In test [5], the pest or weed control at 250 ppm is less than 50%.

For `CCn1c(-c2c(F)cc(OC)cc2F)c(-n2cc(Cl)cn2)cc(Cl)c1=O` [compound 41, 3-chloro-5-(4-chloro-1H-pyrazol-1-yl)-6-(2,6-difluoro-4-methoxyphenyl)-1-ethylpyridin-2(1H)-one], the pest or weed control at 250 µg/mL in test [1] is more than 50%; in test [2], more than 50%; in test [3] it was less than 50%; in test [4] it was more than 50%; in test [6] it was more than 50%; in test [7] it was more than 50%. Further, the pest or weed control at 250 ppm in test [5] is less than 50%.

Take `CCn1c(-c2c(F)cccc2F)c(-c2ccc(Cl)s2)ccc1=O` [compound 6, 5-(5-chlorothiophen-2-yl)-6-(2,6-difluorophenyl)-1-ethylpyridin-2(1H)-one]: the pest or weed control at 250 µg/mL is more than 50% in test [1]; more than 50% in test [2]; less than 50% in test [3]; more than 50% in test [4]; less than 50% in test [6]; more than 50% in test [7]. Besides, the pest or weed control at 250 ppm in test [5] is less than 50%.

As for `CCn1c(-c2c(F)cccc2F)c(-c2cccs2)ccc1=O` [compound 5, 6-(2,6-difluorophenyl)-1-ethyl-5-(thiophen-2-yl)pyridin-2(1H)-one], the pest or weed control at 250 µg/mL in test [1], in test [2], in test [3], in test [4], in test [6] and in test [7] was more than 50% each time. For the same molecule, in test [5], the pest or weed control at 250 ppm is more than 50%.

Turning to `CCn1c(-c2c(F)cc(OC)cc2F)c(-c2c(Br)cnn2C)cc(Cl)c1=O` [compound 23, 5-(4-bromo-1-methyl-1H-pyrazol-5-yl)-3-chloro-6-(2,6-difluoro-4-methoxyphenyl)-1-ethylpyridin-2(1H)-one], the pest or weed control at 250 µg/mL was more than 50% in test [1]; more than 50% in test [2]; less than 50% in test [3]; more than 50% in test [4]; more than 50% in test [6]; more than 50% in test [7]. For the same molecule, in test [5], the pest or weed control at 250 ppm was less than 50%.

On to `CCn1c(-c2c(F)cc(F)cc2F)c(C2OCCCO2)cc(Cl)c1=O` [compound 8, 3-chloro-5-(1,3-dioxan-2-yl)-1-ethyl-6-(2,4,6-trifluorophenyl)-pyridin-2(1H)-one], for which the pest or weed control at 250 µg/mL in test [1] is less than 50%; in test [2], more than 50%; in test [3], less than 50%; in test [4], more than 50%; in test [6] it was less than 50%; in test [7] it was more than 50%. Besides, in test [5], the pest or weed control at 250 ppm was more than 50%.

Take `CCn1c(-c2c(F)cc(F)cc2F)c(-n2cncn2)cc(Cl)c1=O` [compound 34, 3-chloro-1-ethyl-5-(1H-1,2,4-triazol-1-yl)-6-(2,4,6-trifluorophenyl)pyridin-2(1H)-one]: the pest or weed control at 250 µg/mL in test [1] was more than 50%; in test [2] it was more than 50%; in test [3], less than 50%; in test [4] it was more than 50%; in test [6] it was more than 50%; in test [7], more than 50%. Also, the pest or weed control at 250 ppm in test [5] was less than 50%.

For the molecule `CCn1c(-c2c(F)cc(F)cc2F)c(-n2cc(Cl)cn2)cc(Br)c1=O` [compound 71, 5-(4-chloro-1H-pyrazol-1-yl)-1-ethyl-3-bromo-6-(2,4,6-trifluoro-phenyl)pyridin-2(1H)-one], the pest or weed control at 250 µg/mL in test [1] is more than 50%; in test [2] it was more than 50%; in test [3] it was less than 50%; in test [4], more than 50%; in test [6], more than 50%; in test [7], more than 50%. The pest or weed control at 250 ppm in test [5] is less than 50%.

For `CCn1c(-c2c(F)cc(F)cc2F)c(-n2cnc(Cl)c2Cl)ccc1=O` [compound 136, 5-(4,5-dichloro-1H-imidazol-1-yl)-1-ethyl-6-(2,4,6-trifluorophenyl)pyridin-2(1H)-one], the pest or weed control at 250 µg/mL in test [1] was more than 50%; in test [2] it was more than 50%; in test [3], less than 50%; in test [4] it was more than 50%; in test [6], more than 50%; in test [7] it was more than 50%. For the same molecule, the pest or weed control at 250 ppm in test [5] is more than 50%.

`CCn1c(-c2c(F)cccc2F)c(-c2ccc(Cl)s2)cc(Cl)c1=O` [compound 7, 3-chloro-5-(5-chlorothiophen-2-yl)-6-(2,6-difluorophenyl)-1-ethylpyridin-2(1H)-one]: the pest or weed control at 250 µg/mL was more than 50% in test [1]; more than 50% in test [2]; less than 50% in test [3]; more than 50% in test [4]; less than 50% in test [6]; more than 50% in test [7]. Also, the pest or weed control at 250 ppm in test [5] is less than 50%.

Regarding `CCn1c(-c2c(F)cc(F)cc2F)c(-n2cc(Cl)cn2)ccc1=O` [compound 27, 5-(4-chloro-1H-pyrazol-1-yl)-1-ethyl-6-(2,4,6-trifluorophenyl)-pyridin-2(1H)-one], the pest or weed control at 250 µg/mL is more than 50% in test [1]; less than 50% in test [2]; less than 50% in test [3]; more than 50% in test [4]; more than 50% in test [6]; more than 50% in test [7]. Also, in test [5], the pest or weed control at 250 ppm is less than 50%.

`CCn1c(-c2c(F)cc(F)cc2F)c(-c2c(Br)cnn2C)cc(Cl)c1=O` [compound 21, 5-(4-bromo-1-methyl-1H-pyrazol-5-yl)-3-chloro-1-ethyl-6-(2,4,6-trifluorophenyl)pyridin-2(1H)-one]: the pest or weed control at 250 µg/mL was more than 50% in test [1]; more than 50% in test [2]; less than 50% in test [3]; more than 50% in test [4]; more than 50% in test [6]; more than 50% in test [7]. Also, in test [5], the pest or weed control at 250 ppm is more than 50%.

Take `CCn1c(-c2c(F)cccc2F)c(-c2cccnc2Cl)ccc1=O` [compound 17]: the pest or weed control at 250 µg/mL in test [1], in test [4] and in test [6] was more than 50% throughout.
